Assay results reported in publication PMC12040169 (PLOS Biology, 2025).

Test: in vitro
Settings: human, hela cells, % viability

| SMILES | viability at 28.5 h, 10 µM | viability at 28.5 h, 10 µM (bulk resorufin, single well) |
| --- | --- | --- |
| COCC(C)NCc1ccccc1C (stereo not drawn) [CBK027852] | 115% |  |
| CNCc1cc(Br)ccc1OC [CBK027857] | 113% |  |
| O=C(c1cc[nH]n1)N1CCOCC1 [CBK027868] | 89.2% |  |
| CCOc1cc(/C=N/Nc2nncn2N)cc(I)c1O [CBK027879] | 93.6% |  |
| COC(=O)N/N=C(\C)c1ccc(Br)s1 [CBK027886] | 103% |  |
| COc1ccc(CCC(=O)Nc2nnc[nH]2)cc1 [CBK027896] | 101% |  |
| COc1ccc(-c2nc(=S)c3c(n2CCCO)CCCC3)cc1 [CBK027898] | 88.7% |  |
| Cc1nc2ccccc2c(O)c1CN1CCN(C)CC1 [CBK027922] | 119% |  |
| NC(=O)c1c(NC(=O)Cn2cnc([N+](=O)[O-])n2)sc2c1CCCC2 [CBK027935] | 98.6% |  |
| O=C(Nc1nn[nH]n1)C1CCCCC1 [CBK027955] | 112% |  |
| O=c1nc(O)c2ccccc2s1 [CBK027968] | 94.9% |  |
| CCOc1ccc(/C=C2\SC(=O)NC2=S)cc1 [CBK027996] | 90.9% |  |
| CCCc1nnc(SCC(=O)Nc2cccc(C(F)(F)F)c2)n1N [CBK028004] | 104% |  |
| CC(C)C(c1nnnn1Cc1ccccc1)N1CCOCC1 (stereo not drawn) [CBK028054] | 117% |  |
| Cc1ccc(S(=O)(=O)N(CCC#N)CCN2CCCC2)cc1 [CBK028055] | 119% |  |
| COc1cccc(CCNCC(O)COc2ncnc3ccccc23)c1 (stereo not drawn) [CBK028127T] | 93.1% |  |
| COc1ccc([C@@]23CCC(NC(=S)NCc4ccccc4)C[C@@H]2N(Cc2ccccc2)CC3)cc1 (stereo partly drawn) [CBK028140] | 88% |  |
| C#CCn1nnc2ccccc21 [CBK028164] | 104% |  |
| O=S1(=O)NC=Nc2ccccc21 [CBK028171] | 112% |  |
| O=C(NC(=S)Nn1cnnc1)c1ccccc1 [CBK028188] | 125% |  |
| FC(F)(F)c1nc2ccccc2[nH]1 [CBK028224] | 84.5% |  |
| C[S+]([O-])c1nc2ccccc2s1 (stereo not drawn) [CBK028233] | 93.5% |  |
| O=C(Nc1cccc(N2CCNCC2)c1)c1ccccc1 [CBK028255T] | 114% |  |
| O=C(CCCOc1ccccc1)Nc1cccnc1N1CCNCC1 [CBK028258T] | 97.3% |  |

| SMILES | viability at 28.5 h, 10 µM | viability at 28.5 h, 10 µM (bulk resorufin, single well) |
| --- | --- | --- |
| O=C(CCS(=O)(=O)c1ccccc1)Nc1cccnc1N1CCNCC1 [CBK028262T] | 103% |  |
| CN(CC(=O)Nc1cccnc1N1CCNCC1)C(=O)c1ccccc1 [CBK028264T] | 95.8% |  |
| O=C(Nc1ccc(N2CCNCC2)nc1)C1(c2ccccc2)CCCCC1 [CBK028269T] | 97.8% |  |
| O=C(CCCOc1ccccc1)Nc1ccc(N2CCNCC2)nc1 [CBK028270T] | 98.2% |  |
| O=C(COc1ccccc1)Nc1cccc(N2CCNCC2)c1 [CBK028271T] | 100% |  |
| COc1ccc(CCCC(=O)Nc2ccc(N3CCNCC3)nc2)cc1OC [CBK028272T] | 82.4% |  |
| O=C(Nc1ccc(N2CCNCC2)nc1)c1ccccc1 [CBK028277T] | 114% |  |
| O=C(CCC(=O)c1ccccc1)Nc1ccccc1N1CCNCC1 [CBK028284T] | 92.9% |  |
| CN(CC(=O)Nc1ccccc1N1CCNCC1)C(=O)c1ccccc1 [CBK028287T] | 99.3% |  |
| O=C(NCc1ccccc1OC1CCNC1)c1ccccc1 (stereo not drawn) [CBK028301T] | 114% |  |
| C[C@H]1CC[C@H](C(=O)N2CCC[C@H]2C(=O)O)CC1 [CBK028320] | 81.9% |  |
| Cc1ccc2c(c1)CCCN2C(=O)c1csc2c(C(F)(F)F)cc(N3CCOCC3)nc12 [CBK028367] | 116% |  |
| COc1ccc(CCCC(=O)Nc2cc3ccccc3c(N3CCNCC3)n2)cc1OC [CBK028417T] | 90.3% |  |
| O=C(CCC(=O)c1ccccc1)Nc1cc2ccccc2c(N2CCNCC2)n1 [CBK028418T] | 106% |  |
| O=C(CCS(=O)(=O)c1ccccc1)Nc1cc2ccccc2c(N2CCNCC2)n1 [CBK028419T] | 88.1% |  |
| O=C(Nc1cc2ccccc2c(N2CCNCC2)n1)c1ccccc1 [CBK028423T] | 104% |  |
| COc1ccc(CCCC(=O)NCc2ccc(OC3CCNCC3)cc2)cc1OC [CBK028428T] | 94.9% |  |
| COc1ccc(CCCC(=O)Nc2cncc(OC3CCNCC3)n2)cc1OC [CBK028437T] | 87.3% |  |
| O=C(CCS(=O)(=O)c1ccccc1)Nc1cncc(OC2CCNCC2)n1 [CBK028438T] | 94.1% |  |
| CN(CC(=O)Nc1cncc(OC2CCNCC2)n1)C(=O)c1ccccc1 [CBK028440T] | 105% |  |
| O=C(Cc1c[nH]c2ccccc12)Nc1cncc(OC2CCNCC2)n1 [CBK028441T] | 91% |  |
| CCOC(=O)CNC(=S)N[C@H]1CC[C@@]2(c3cccnc3)CCN(Cc3ccccc3)[C@H]2C1 [CBK028453] | 115% |  |
| NCCNc1cccc2c1ccn2S(=O)(=O)c1ccccc1 [CBK028470C] | 80.2% |  |
| CN1CCN(c2cc(C(F)(F)F)c3scc(C(=O)NCCC4=CCCCC4)c3n2)CC1 [CBK028474] | 110% |  |

| SMILES | viability at 28.5 h, 10 µM | viability at 28.5 h, 10 µM (bulk resorufin, single well) |
| --- | --- | --- |
| CCCNC(c1ccccc1)c1ccncc1 (stereo not drawn) [CBK028505] | 96.7% |  |
| CCOC(=O)N1CCC(NCC(C)(C)CN(C)C)CC1 [CBK028516] | 96.2% |  |
| COc1nc2nonc2nc1OC [CBK028544] | 110% |  |
| CCN(CC)C(=O)c1c(NS(=O)(=O)c2ccc(C)cc2)sc2c1CCCC2 [CBK028627] | 111% |  |
| O=C(c1c(NS(=O)(=O)c2ccc3ccccc3c2)sc2c1CCCC2)N1CCOCC1 [CBK028636] | 94.4% |  |
| COC(=O)c1ccc(NS(=O)(=O)c2cc(Cl)sc2Cl)cc1 [CBK028684] | 107% |  |
| Cc1nc(-c2nnc3ccc(Cl)nn23)c(Br)[nH]1 [CBK028706B] | 87.5% |  |
| Nc1nc(Cc2ccc(F)cc2)no1 [CBK028717] | 110% |  |
| CCOC(=O)c1cc(C(N)=S)c(C)nc1C(F)(F)F [CBK028734] | 92.8% |  |
| CSc1cccc(NC(=S)N2CCCCC2CCN2CCOCC2)c1 (stereo not drawn) [CBK028765] | 83.9% |  |
| O=C(NC(=O)N1CCSC1)c1c(Cl)cccc1Cl [CBK028794] | 85.3% |  |
| CSc1cc(-c2ccc(F)cc2)n[nH]1 [CBK028809] | 123% |  |
| O=C(Nc1nccs1)c1ncn[nH]1 [CBK028821] | 102% |  |
| COc1ccc(-c2n[nH]c(N)n2)cc1 [CBK028843] | 116% |  |
| CSc1ccc(C(=O)C(C)(C)N2CCOCC2)cc1 [CBK028870] |  | 107% |
| COCCNC(=O)C(C)SCc1ccccc1 (stereo not drawn) [CBK028889] | 86.1% |  |
| CCNC(=O)/N=C(/N)Nc1nc2ccccc2s1 [CBK028890] | 72.1% |  |
| CC(C)Oc1ccc(C(F)(F)F)cc1N [CBK028895C] | 105% |  |
| CC(C)(C)OC(=O)N[C@@H](Cc1ccccc1)CN(Cc1ccccc1)Cc1ccc(S(=O)(=O)N2CCOC2=O)cc1 [CBK028952] | 86.1% |  |
| O=C(c1ccc(Br)o1)N1CCc2ccc(S(=O)(=O)N3CCOCC3)cc21 [CBK028953] | 100% |  |
| O=C(CN1CCOCC1)N1CCN(C(=O)c2ccc(Cl)cc2Cl)CC1 [CBK028992] | 97.7% |  |
| CC(C)NCC(O)COC1CCC(C(C)(C)C)CC1 (stereo not drawn) [CBK029007C] | 89.2% |  |
| N#Cc1ccc(CN2C(=O)c3ccccc3C2=O)cc1 [CBK029022] | 100% |  |
| COC(=O)c1ccc(CN2CCCC2)cc1 [CBK029023] | 106% |  |

| SMILES | viability at 28.5 h, 10 µM | viability at 28.5 h, 10 µM (bulk resorufin, single well) |
| --- | --- | --- |
| O=C(Nc1cccc(N2CCNCC2)c1)c1cccnc1 [CBK029414T] | 94.6% |  |
| O=C(Nc1cccc(N2CCNCC2)c1)c1ccnc2ccccc12 [CBK029416T] | 95.5% |  |
| O=C(Nc1cccnc1N1CCNCC1)c1ccoc1 [CBK029417T] | 95.4% |  |
| O=C(Nc1cccnc1N1CCNCC1)c1cc(F)cc(F)c1 [CBK029420T] | 92.3% |  |
| O=C(Nc1cccnc1N1CCNCC1)c1cccnc1 [CBK029426T] | 120% |  |
| O=C(Nc1ccc(N2CCNCC2)nc1)c1cnccn1 [CBK029436T] | 126% |  |
| O=C(Nc1ccc(N2CCNCC2)nc1)c1cccnc1 [CBK029439T] | 95.1% |  |
| O=C(Nc1ccccc1N1CCNCC1)c1ccoc1 [CBK029442T] | 96.2% |  |
| COc1ccc(C(=O)Nc2ccccc2N2CCNCC2)cc1 [CBK029447T] | 107% |  |
| Cn1cccc1C(=O)Nc1ccccc1N1CCNCC1 [CBK029450T] | 95.4% |  |
| O=C(NCc1ccccc1OC1CCNC1)c1ccccn1 (stereo not drawn) [CBK029464T] | 91.6% |  |
| Cc1cccc(CN(CCCN)C(=O)Nc2ccc(C(C)(C)C)cc2)n1 [CBK033365C] | 98.3% |  |
| COc1cc(NC(=O)c2cccnc2)c(Cl)cc1NC(=O)c1ccc(Cl)cc1 [CBK033522] | 98.2% |  |
| COc1cc(NC(=O)Cn2nc([N+](=O)[O-])c(Cl)c2C)c(OC)cc1Cl [CBK033535] | 97.9% |  |
| COc1ccc(-c2cc(C(=O)Nc3nc4ccc(S(C)(=O)=O)cc4s3)c3ccccc3n2)cc1 [CBK033551] | 95.9% |  |
| CCOc1ccc(NC(=O)c2ccc(CN3CCOCC3)cc2)cc1 [CBK033557] | 89.7% |  |
| COc1ccc(CN2CCN(C(=O)c3ccccc3F)CC2)c(OC)c1 [CBK033601] | 125% |  |
| COc1cccc(CN2CCN(Cc3cc(OC)cc(OC)c3)CC2)c1 [CBK033622] | 91.2% |  |
| Cc1ccc(Cl)cc1N(Cc1ccc(C(=O)N2CCC(C)CC2)cc1)S(=O)(=O)c1ccccc1 [CBK033646] | 107% |  |
| Oc1ccc(SCCCCN2CCCCC2)cc1 [CBK033676] | 110% |  |
| Cc1ccc2nsnc2c1NC(=O)COc1ccc([N+](=O)[O-])cc1 [CBK033705] | 95.6% |  |
| O=C(CCN1CCN(CCO)CC1)Nc1ccc(Cl)cc1 [CBK033787] | 101% |  |
| CC(=O)c1ccc(N(C)C)cc1 [CBK033830] | 106% |  |
| CCOC(=O)N1CCN(CC(O)COc2cc(C)c(Cl)c(C)c2)CC1 (stereo not drawn) [CBK033833C] | 88.9% |  |
